Reference: patent US7531329B2, “Carbonyl reductase, gene thereof and method of using the same” (Kaneka Corporation, priority 2002, dated 2009)

Tests used:
reductase RDR = assay: Substrate specificity of the reductase RDR (NADH oxidation, decrease in absorbance at 340 nm); format: biochemical, Devosia riboflavina IFO 13584; conditions: substrate 1 mM, NADH 0.25 mM, 100 mM phosphate buffer pH 6.5, 0.33% (v/v) dimethyl sulfoxide, 30° C.
[1] = Determination of enzyme properties of purified RDR; format: biochemical; conditions: N-benzyl-3-pyrrolidinone 5 mM, coenzyme 0.25 mM, pH 6.5, 30° C.
Protocol: RDR obtained in Example 1 was investigated as to its enzymatic properties. Fundamentally, the enzyme activity was measured by adding the substrate N-benzyl-3-pyrrolidinone (5 mM), the coenzyme […] (0.25 mM) and the enzyme to 100 mM phosphate buffer (pH 6.5), allowing the reaction to proceed at 30° C. for 1 minute, and then measuring the decrease in absorbance at a wavelength of 340 nm.
In the presence of NADH as a coenzyme, the enzyme acted on N-benzyl-3-pyrrolidinone to form (R)-N-benzyl-3-pyrrolidinol with an optical purity of 99.9% ee or more. The enzyme activity measured with NADPH as a coenzyme by the above method was about 0.6% of the activity obtained by using NADH as a coenzyme.
Enzyme activity measurements were carried out by the same enzyme activity measurement method as mentioned above except that the pH was varied in the range of 4.0 to 8.0 using, as the buffer, 100 mM phosphate buffer and 100 mM acetate buffer.
Enzyme activity measurements were carried out by the same enzyme activity measurement method as mentioned above except that the temperature was varied from 20° C. to 60° C.

Row | Compound | % activity (relative value, activity to N-benzyl-3-pyrrolidinone taken as 100%) (reductase RDR) | enzyme activity with NADPH as a coenzyme relative to the activity with NADH as a coenzyme [1]
1 | CC(=O)c1ccc(Cl)cc1 [p-chloroacetophenone] | 2354% | 
2 | CCOC(=O)CC(=O)COCc1ccccc1 [ethyl 4-benzyloxyacetoacetate] | 3186% | 
3 | CC(=O)CC(C)C [4-methyl-2-pentanone] | 962% | 
4 | O=C1CCc2ccccc2C1 [2-tetoralone] | 1721% | 
5 | CCOC(=O)C(Cl)C(=O)c1ccccc1 (stereo not drawn) [ethyl 2-chloro-3-oxo-3-phenyloropionate] | 52% | 
6 | O=Cc1ccccc1Cl [o-chlorobenzaldehyde] | 9% | 
7 | CCC(=O)Cc1ccccc1 [1-phenyl-2-butanone] | 147% | 
8 | CC(=O)c1cccc([N+](=O)[O-])c1 [m-nitroacetophenone] | 6927% | 
9 | CC(=O)CCO [4-hydroxy-2-butanone] | 33% | 
10 | CCOC(=O)C(C)=O [ethyl pyruvate] | 6232% | 
11 | O=Cc1ccncc1 [pyridine-4-aldehyde] | 441% | 
12 | CCC(=O)C(=O)O [2-keto-n-butyric acid] | 15% | 
13 | CCCCC(C)=O [2-hexanone] | 5043% | 
14 | O=Cc1ccccc1 [benzaldehyde] | 21% | 
15 | CC(=O)CCC(=O)O [levulinic acid] | 11% | 
16 | COc1ccc(C(C)=O)cc1OC [3,4-dimethoxyacetophenone] | 2073% | 
17 | O=Cc1cccc([N+](=O)[O-])c1 [m-nitrobenzaldehyde] | 683% | 
18 | CCOC(=O)C1CCC(=O)C1 (stereo not drawn) [ethyl 3-oxocyclopentane carboxylate] | 87% | 
19 | O=CCCc1ccccc1 [3-phenylpropionaldehyde] | 685% | 
20 | CC(=O)C(C)=O [diacetyl] | 1614% | 
21 | O=Cc1cccc(Cl)c1 [m-chlorobenzaldehyde] | 301% | 
22 | O=C(c1ccccc1)C(O)c1ccccc1 (stereo not drawn) [benzoin] | 13% | 
23 | CC(=O)CO [hydroxyacetone] | 100% | 
24 | CC(=O)c1ccccc1 [acetophenone] | 181% | 
25 | CCCCCCCCC(=O)C(=O)OCC [ethyl 2-oxodecanoate] | 18% | 

Row | Compound | % activity (relative value, activity to N-benzyl-3-pyrrolidinone taken as 100%) (reductase RDR) | enzyme activity with NADPH as a coenzyme relative to the activity with NADH as a coenzyme [1]
26 | CCCCCC=O [n-hexylaldehyde] | 2225% | 
27 | CC(=O)c1ccc(F)cc1 [4-fluoroacetophenone] | 366% | 
28 | CCC=O [propionaldehyde] | 204% | 
29 | RDR: purified enzyme from Devosia riboflavina IFO 13584 stereoselectively reducing N-benzyl-3-pyrrolidinone to (R)-N-benzyl-3-pyrrolidinol |  | about 0.6%
30 | O=CCCCC=O [glutaraldehyde] | 1339% | 
31 | CC(=O)c1ccc(C)cc1 [p-methylacetophenone] | 521% | 
32 | CCOC(=O)CC(=O)c1ccccc1 [ethyl benzoylacetate] | 98% | 
33 | O=Cc1ccccc1[N+](=O)[O-] [o-nitrobenzaldehyde] | 33% | 
34 | CCOC(=O)CC(=O)CO [ethyl 4-hydroxyacetoacetate] | 1774% | 
35 | CCC(=O)c1ccccc1 [propiophenone] | 27% | 
36 | O=C(CCl)c1cccc(Cl)c1 [2-chloro-1-(3′-chlorophenyl)ethanone] | 463% | 
37 | CC(=O)c1ccccn1 [2-acetylpyridine] | 13% | 
38 | O=C1CCN(Cc2ccccc2)C1 [N-benzyl-3-pyrrolidinone] | 100% | 
39 | O=C(CO)c1ccccc1 [2-hydroxyacetophenone] | 30% | 
40 | CC1(C)COC(=O)C1=O [dihydro-4,4-dimethyl-2,3-furandione] | 1314% | 
41 | CCCCCCCCOC(=O)CC(=O)CCl [n-octyl 4-chloroacetoacetate] | 224% | 
42 | CCC(C)=O [2-butanone] | 280% | 
43 | CC(=O)CC(=O)OC(C)(C)C [tert-butyl acetoacetate] | 5634% | 
44 | COc1ccc2c(c1)CCC(=O)C2 [6-methoxy-2-tetoralone] | 156% | 
45 | CCOC(=O)CC(=O)COC(C)=O [ethyl 4-acetoxyacetoacetate] | 4234% | 
46 | CCOC(=O)C(Cl)C(C)=O (stereo not drawn) [ethyl 2-chloroacetoacetate] | 8907% | 
47 | CCOC(=O)CC(=O)CCl [ethyl 4-chloroacetoacetate] | 683% | 
48 | O=Cc1ccc(Cl)cc1 [p-chlorobenzaldehyde] | 117% | 
49 | CC(=O)C1CC1 [cyclopropyl methyl ketone] | 20% | 
50 | C=CC(C(C)=O)C(=O)OCC (stereo not drawn) [ethyl 2-eteneacetoacetate] | 429% | 

Row | Compound | % activity (relative value, activity to N-benzyl-3-pyrrolidinone taken as 100%) (reductase RDR) | enzyme activity with NADPH as a coenzyme relative to the activity with NADH as a coenzyme [1]
51 | CC(=O)CC(=O)OCc1ccccc1 [benzyl acetoacetate] | 2015% | 
52 | O=C1CCCC1 [cyclopentanone] | 103% | 
53 | CC(=O)CC(C)=O [acetylacetone] | 1354% | 
54 | CCCC=O [n-butylaldehyde] | 728% | 
55 | CC(=O)c1ccc[nH]1 [2-acetylpyrrole] | 70% | 
56 | COc1ccc2c(c1)CC(=O)CC2 [7-methoxy-2-tetoralone] | 7084% | 
57 | CC(=O)c1cccc(O)c1 [m-hydroxyacetophenone] | 61% | 
58 | CCOC(=O)CC(=O)CBr [ethyl 4-bromoacetoacetate] | 4099% | 
59 | CC(=O)CCc1ccccc1 [benzylacetone] | 410% | 
60 | CCOC(=O)CC(C)=O [ethyl acetoacetate] | 4236% | 
61 | COC(=O)CC(C)=O [methyl acetoacetate] | 8341% | 
62 | O=C(O)CC(=O)C(=O)O [oxalacetic acid] | 14% | 
63 | CC(=O)c1cccnc1 [3-acetylpyridine] | 788% | 
64 | CC(=O)c1ccncc1 [4-acetylpyridine] | 6448% | 
65 | CCOC(=O)CC(=O)CN=[N+]=[N-] [ethyl 4-azideacetoacetate] | 804% | 
66 | O=Cc1ccc([N+](=O)[O-])cc1 [p-nitrobenzaldehyde] | 1296% | 
67 | COC(=O)C(C)=O [methyl pyruvate] | 1889% | 
68 | CCCCCC(C)=O [2-heptanone] | 2777% | 
69 | CCC(=O)CC [diethyl ketone] | 32% | 
70 | CC(=O)C=O [methyl glyoxal] | 345% | 
71 | COc1cc2c(cc1OC)CC(=O)CC2 [6,7-dimethoxy-2-tetoralone] | 2267% | 
72 | CCOC(=O)C(C)C(C)=O (stereo not drawn) [ethyl 2-methylacetoacetate] | 239% | 
73 | CC(C)=O [acetone] | 194% | 
74 | O=Cc1ccccn1 [2-pyridinecarbaldehyde] | 82% | 
75 | CC(C=O)c1ccccc1 (stereo not drawn) [2-phenylpropionaldehyde] | 706% | 
